Values quoted from earlier work in patent US5773459A, “Urea- and thiourea-type compounds” (Sugen, Inc., priority 1995, dated 1998).

Legend:
[1] = test system: IGF-1R protein tyrosine kinase; settings: Sepp-Lorenzino et al., Abstract, 1994; cited from earlier work
[2] = test system: human breast cancer cells; settings: Sepp-Lorenzino et al., Abstract, 1994; cited from earlier work

CO[C@H]1[C@@H](OC)C[C@H](C)[C@@H](OC)C2=CC(=O)C=C(NC(=O)/C(C)=C/C=C\[C@H](OC)[C@@H](OC(N)=O)/C(C)=C/[C@@H]1C)C2=O [Herbimycin A]
inhibition of the IGF-1R protein tyrosine kinase [1]: inhibit | inhibition of cellular proliferation in human breast cancer cells [2]: inhibit
